Laboratory results as given in patent US6350739B1, “Methods of prevention and treatment of ischemic damage” (University of Florida Resarch Foundation, Inc., priority 1999, dated 2002).
“Also recorded” adds a separate entry of the source. Marks after values point to notes of the source that are not given here.

Legend:
[1] = test system: ischemia induced by middle cerebral artery occlusion (MCAO); assay: Pretreatment with estrogen compound before middle cerebral artery occlusion (MCAO) in ovariectomized rats; type: in vivo, rat; design: % Survival: concentration or dose not given beside the values
Protocol: Rats were used as experimental models to test the effects of estrogen compounds in protecting against ischemic damage. To remove the naturally occurring source of estrogen, ovariectomies were performed prior to induction of ischemia.
Subsequent to the ovariectomy, rats were treated with an estrogen compound either by subcutaneous delivery with Silastic® tubes 24 hours prior to the MCA occlusion or by intravenous delivery as follows:
Subcutaneous sustained delivery: 17β- or 17α-estradiol was packed into 5 mm long Silastic® tubes (Dow-Corning, Midland, Mich.) according to the method of Mohammed et al. 1985 Ann. Neurol 18, 705-711. Sham (empty) tubes were similarly prepared as estrogen negative controls. […]
The control was administered HPCD only. The chemical delivery system is formulated so that the estrogen is slowly released from the carrier.
At 7 to 8 days after ovariectomy, a method for occluding the […] was applied to the rat using modifications of the methods of Longa et al. (1989) Stroke, vol. 20, 84-91; and Nagasawa et al. (1989) Stroke, vol.20, 1037-1043, with certain modifications, as described herein.
Animals were anesthetized by ip injection with ketamine (60 mg/kg) and xylazine (10 mg/kg). Rectal temperature was monitored and maintained between 36.5 and 37.0 C with a heat lamp throughout the entire procedure. The left carotid artery was exposed through a midline cervical incision. The left sternohyloid, sternomastoid, digastric (posterior belly) and the omohyloid muscles were divided and retracted. Part of the greater horn of the hyloid bone was cut to facilitate exposure of the distal external carotid artery (ECA). The common carotid artery (CCA), ECA, and internal carotid artery (ICA) were dissected away from adjacent nerves. The distal ECA and its branches, the CCA, and the pterygopalatine arteries were coagulated completely. A microvascular clip was placed on the ICA near skull base. A 2.5 cm length of 3-0 monofilament nylon suture was heated to create a globule for easy movement and blocking of the lumen of the vessel. This was introduced into the ECA lumen through the puncture. The suture was gently advanced to the distal ICA until it reached the clipped position. The microvascular clip was then removed and the suture was inserted until resistance was felt. The distance between the CCA bifurcation and the resistive point was about 1.8 cm. This operative procedure was completed within 10 minutes without bleeding. After the prescribed occlusion tine (40 minutes), the suture was withdrawn from the ICA and the distal ICA was immediately cauterized.
Animals that survived until the scheduled sacrifice time were sacrificed by decapitation. Scheduled post-ischemic sacrifices occurred at 6 hours, 24 hours and 1 week post MCAO (Table 1). For the 6-hour sample, animals were monitored continuously. […] Similarly, animals scheduled for the 1 week post-ischemic sacrifice were monitored for the first 4 hours after surgery and then daily thereafter.
The brains were isolated from the decapitated heads, sliced into 3 or 5 coronal tissue slices as described below and then stained with hematoxylin and eosin to determine the extent of the ischemic area Stained slices were photographed and subsequently imaged using a Macintosh Cadre 800 computer, equipped with an Image 1.47 software program for the assessment of the cross-sectional area of the ischemic lesion. These images and the calculated area of ischemic damage were stored in the program for later retrieval and data reduction. The significance of differences in mortality among the different treatment groups was determined using Chi-Square analysis.
Ovariectomized rats were treated with 5 mm Silastic® tubes containing 17α-estradiol at 24 hours prior to MCAO. At 24 hours after the MCAO, the animals were sacrificed and the brains extracted.

[2] = test system: primary rat brain capillary endothelial cells (BCEC); assay: Brain capillary endothelial cell mortality under combined anoxia and hypoglycemia; type: cell-based; settings: 2 nM; 100 mg % glucose and 2 hours anoxia
Protocol: (§1) Primary rat brain capillary endothelial cells (BCEC) cultures were prepared following the method of Goldstein, J. Neurochemistry vol.
(§2) Nitrogen gas was influxed to replace the oxygen inside the chamber. The chamber was sealed and placed in the incubator for four hours for nonhypoglycemic cultures and 2 hours for hypoglycemic cultures.

[3] = test system: ischemia induced by middle cerebral artery occlusion (MCAO); assay: Post-treatment with E2-CDS after onset of MCAO in ovariectomized rats; type: in vivo, rat
Protocol: At 7 to 8 days after ovariectomy, a method for occluding the middle carotid artery was applied to the rat using modifications of the methods of Longa et al. (1989) Stroke, vol.
Animals were anesthetized by ip injection with ketamine (60 mg/kg) and xylazine (10 mg/kg). Rectal temperature was monitored and maintained between 36.5 and 37.0 C with a heat lamp throughout the entire procedure. The left carotid artery was exposed through a midline cervical incision. The left sternohyloid, sternomastoid, digastric (posterior belly) and the omohyloid muscles were divided and retracted. Part of the greater horn of the hyloid bone was cut to facilitate exposure of the distal external carotid artery (ECA). The common carotid artery (CCA), ECA, and internal carotid artery (ICA) were dissected away from adjacent nerves. The distal ECA and its branches, the CCA, and the pterygopalatine arteries were coagulated completely. A microvascular clip was placed on the ICA near skull base. A 2.5 cm length of 3-0 monofilament nylon suture was heated to create a globule for easy movement and blocking of the lumen of the vessel. This was introduced into the ECA lumen through the puncture. The suture was gently advanced to the distal ICA until it reached the clipped position. The microvascular clip was then removed and the suture was inserted until resistance was felt. […]

[4] = test system: primary rat brain capillary endothelial cells (BCEC); assay: Brain capillary endothelial cell mortality under hypoglycemia (Trypan blue); type: cell-based; settings: 2 nM
Protocol: Neurochemistry vol. 25, 715-717, 1975, incorporated herein by reference. […] The glucose concentration of the culture media was then adjusted from 20 mg % to 200 mg % by adding appropriate amount of D-(+)-glucose to the glucose-free media and monitored by Glucose and L-Lactate Analyzer (YSI model 2300 STAT plus, YSI, Inc., Yellow Springs, Ohio). The hypoglycemic cultures were maintained for 24 hours or 48 hours prior to staining with Trypan blue. Cell mortality was counted using Trypan blue staining method. Cell death percentage was calculated as dead cell/alive cell×100%. Statistical methods used included two-way analysis of variance, applied to determine the significance of the difference among the experimental groups. Kruskal-Wallis nonparametric analysis was used for data presented as percentage. […] P<0.05 was considered significant.

[5] = test system: middle cerebral artery (MCA) occlusion; assay: Pretreatment with ent-17β-estradiol or 17β-estradiol sc in oil before MCA occlusion; type: in vivo, Sprague-Dawley female rats; settings: for infarct area (mean±SEM): 100 μg/kg sc in oil 2 hours prior to 60 minute MCA occlusion, 24 hours reperfusion, vehicle 13.3±2.0
Protocol: Sprague-Dawley female rats ([…] body weight) were purchased from Charles River Laboratories, Inc. (Wilmington, Mass.). They were housed in pairs in hanging, stainless steel cage in a temperature controlled room (25° C.) with daily light cycle (light on 0700 to 1900 h daily) for a minimum of 3 days before surgery. All rats had free access to Purina Rat Chow and tap water. All procedures performed on animals were reviewed and approved by the Institutional Animal Care and Use Committee of the University of Florida before initiation of the study. Animals were ovariectomized at 1 week prior to middle cerebral artery (MCA) occlusion.
MCAO was achieved according to the methods described previously by us. Briefly, following administration of anesthetics of ketamine (60 mg/kg, ip) and xylazine (10 mg/kg, ip), the common carotid artery […] on the left side were exposed through a midline cervical incision and then gently dissected away from adjacent nerves. A 3-0 monofilament nylon suture was introduced into the left […] and gently advanced to the distal ICA until resistance was felt where the suture passed the bifurcation of the MCA and anterior cerebral artery (ACA). The thread was left in place for 60 minutes after which time re-perfusion was initiated. Rectal temperature was monitored and maintained between 36.5 and 37.0° C. during the entire stroke procedure. Each group of animals was decapitated after 24 hours of reperfusion. The brain was removed and placed in a metallic brain matrix for tissue slicing immediately after sacrifice. Five slices were made at […] posterior to the olfactory bulb. The slices were incubated for 30 minutes in a 2% solution of 2,3,5-triphenyltetrazolium chloride (ITC) in physiological saline at 37° C. and then were fixed in 10% formalin. The stained slices were photographed and subsequently measured for the surface area of the slices and the ischemic lesion area. Ischemic lesion volume was calculated as by the sums of the areas of ischemic lesion across the five slices divided by the total cross sectional area of these five brain slices.

[6] = test system: ischemia induced by middle cerebral artery occlusion (MCAO); assay: Post-treatment at 0.5, 1, 2, 3 and 4 hours after MCAO, ischemic lesion volume; type: in vivo, rat; settings: iv 100 μg/kg HPCD-complexed plus Silastic pellet at 0.5, 1, 2, or 3 hours post-occlusion; 48 hours after MCAO
Protocol: Ovariectomized, non-treated animals (OVX) and non-ovariectomized, non-treated animals (INT) were used as controls (n=12 and n=6, respectively). At 48 hours following MCAO, animals were sacrificed and ischemic lesion volume was determined by obtaining brain sections as previously described and staining with TTC.

[7] = test system: primary rat brain capillary endothelial cells (BCEC); assay: Brain capillary endothelial cell mortality under anoxia (Trypan blue); type: cell-based; settings: 2 nM, 200 mg % glucose
Protocol: as §1, §2

[8] = 5 mm Silastic tube 24 hours prior to MCAO, sacrifice 24 hours after MCAO, vs sham
[9] = Total of all planned sacrifice times
[10] = planned sacrifice 1 Day after MCAO
[11] = planned sacrifice 1 Week after MCAO
[12] = planned sacrifice 6 hrs after MCAO

Structure (SMILES): C[C@]12CC[C@@H]3c4ccc(O)cc4CC[C@H]3[C@@H]1CC[C@H]2O [17α-estradiol]
- reduction of ischemic area, slice C [1, 8]: 55%
- reduction of ischemic area, slice D [1, 8]: 66%
- reduction of ischemic area, slice E [1, 8]: 81%
- protective effect in tissue slices A-E (FIG. 3) ([1]; sustained subcutaneous delivery initiated 24 hours prior to ischemic event): significant protective effect

Structure (SMILES): C[C@]12CC[C@@H]3c4ccc(O)cc4CC[C@H]3[C@@H]1CC[C@@H]2O [17β-estradiol]
- protection of BCEC from cumulative effect of hypoglycemia and anoxia [2]: effective in protecting cultured BCEC
- reduction of ischemic area ([3]; administered 40 minutes after MCAO, range over slices): 45-90%
- reduction of ischemic area (area under the ischemic curve) ([3]; administered 90 minutes after MCAO): 31%
- cell loss saved vs control ([4]; medium glucose 20 mg %): 23. %
- cell loss saved vs control ([4]; medium glucose 40 mg %): 28.4%
- cell loss saved vs control ([4]; medium glucose 100 mg %): 35.9%
- difference in percent cell death with and without estrogen ([4]; normal glucose 200 mg %): Little difference
- infarct area (mean±SEM) [5]: 5.3±1.6
- reduction of infarct ([5]; 100 μg/kg sc in oil 2 hours prior to MCA occlusion, vs vehicle): 60%
- protection, ischemic lesion volume [6]: significant protection
- reduction of cell death ([7]; 1 hour anoxic insult): 28.4%
- reduction of cell death ([7]; 4 hour anoxic insult): 18.4%
- reduction of ischemic lesion size of the whole coronal section, region C ([1]; 10 μg/kg sc injection two hours prior to MCAO, sacrifice at 24 hours, 9 mm caudal to olfactory bulb): 46.3%
- reduction of ischemic lesion size of the whole coronal section, region D ([1]; 10 μg/kg sc injection two hours prior to MCAO, sacrifice at 24 hours, 11 mm caudal to olfactory bulb): 44.1%
- Number of Animals Alive [1, 9]: 14
- Number of Animals Dead [1, 9]: 4
- % Survival ([1]; Total of all planned sacrifice times, pretreatment 24 hours prior to MCAO): 78%
- % Survival ([1]; Total of all planned sacrifice times, pretreatment 24 hours prior to MCAO, listed as E2 Implant): 78* %
- Number of Animals Alive [1, 10]: 8
- Number of Animals Dead [1, 10]: 0
- % Survival ([1]; planned sacrifice 1 Day after MCAO, pretreatment 24 hours prior to MCAO): 100* %
- Number of Animals Alive [1, 11]: 3
- Number of Animals Dead [1, 11]: 1
- % Survival ([1]; planned sacrifice 1 Week after MCAO, pretreatment 24 hours prior to MCAO): 75* %
- Number of Animals Alive [1, 12]: 3
- Number of Animals Dead [1, 12]: 3
- % Survival ([1]; planned sacrifice 6 hrs after MCAO, pretreatment 24 hours prior to MCAO): 50%
- ischemic lesion, percent of cross-sectional area of brain sections ([1]; pretreatment 24 hours prior to MCAO, 3 brain slices, sacrifice 1 day or 1 week, sham 25.6±5.7%): 9.8±4.0%
- mortality ([1]; pretreatment of ovariectomized rats before MCAO, untreated 65%): 22%
- protective effect in tissue slices A-D (FIG. 2) ([1]; subcutaneous injection two hours prior to ischemic event): significant protective effect

Structure (SMILES): C[C@@]12CC[C@H]3c4ccc(O)cc4CC[C@@H]3[C@H]1CC[C@H]2O [ent-17β-estradiol, (8α,9β,13α,14β,17α)-estra-1,3,5(10)-triene-3,17-diol]
- effectiveness in reducing percent lesion volume compared with 17β-estradiol ([5]; 100 μg/kg sc in oil): as effective in reducing the percent lesion volume as 17β-estradiol; also recorded: as effective a therapeutic agent as 17β-estradiol
- infarct area (mean±SEM) [5]: 5.3±1.7
